Experimental data: patent publication US6525001B1, “Substituted pyrimidine and pyridine herbicides” (Mid-American Commercialization Corporation, priority 1997, dated 2003)

Assays:
Format in all cases: in vivo
rice (Oryza sativa) = assay: Test B flood test
Method in brief: (§1)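 Each value is a visual injury score relative to controls, with 10 meaning complete control and 0 no effect. Evaluation took place twelve to sixteen days after the 2-leaf-stage plants were treated and kept in the greenhouse.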

[1] = system: smallflower flatsedge (Cyperus difformis); assay: Test B flood test
Method in brief: as §1

[2] = system: duck salad (Heteranthera limosa); assay: Test B flood test
Method in brief: as §1

[3] = system: bamyardgrass (Echinochloa crus-galli); assay: Test B flood test
Method in brief: as §1

[4] = system: purple nutsedge (Cyperus rotundus); assay: Test B pre-/postemergence; set-up: key: 0 is no effect; 10 is complete control
Method in brief: (§2)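 Response scores run from 0, meaning no effect, to 10, meaning complete control, assigned by eye relative to controls twelve to sixteen days after spraying. Treatment was both preemergence on planted seed and postemergence on plants at the 1- to 4-leaf stage.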

soybean (Glycine max) = assay: Test B pre-/postemergence; set-up: key: 0 is no effect; 10 is complete control
Method in brief: as §2

wild oat (Avena fatua) = assay: Test B pre-/postemergence; set-up: key: 0 is no effect; 10 is complete control
Method in brief: as §2

[5] = system: crabgrass (Digitaria sanguinalis); assay: Test B pre-/postemergence; set-up: key: 0 is no effect; 10 is complete control; settings: for Crabgrass plant response rating: Preemergence
Method in brief: as §2

[6] = system: sugar beet (Beta vulgaris); assay: Test B pre-/postemergence; set-up: key: 0 is no effect; 10 is complete control
Method in brief: as §2

[7] = system: wheat (Triticum aestivum); assay: Test B pre-/postemergence; set-up: key: 0 is no effect; 10 is complete control
Method in brief: as §2

[8] = system: pigweed (Amaranthus retroflexus); assay: Test B pre-/postemergence; set-up: key: 0 is no effect; 10 is complete control
Method in brief: as §2

[9] = system: bedstraw (Galium aparine); assay: Test B pre-/postemergence; set-up: key: 0 is no effect; 10 is complete control; settings: for Bedstraw plant response rating: Preemergence
Method in brief: as §2

[10] = system: broadleaf signalgrass (Brachiaria decumbens); assay: Test B pre-/postemergence; set-up: key: 0 is no effect; 10 is complete control; settings: for B. signalgrass plant response rating: Preemergence
Method in brief: as §2

[11] = system: velvetleaf (Abutilon theophrasti); assay: Test B pre-/postemergence; set-up: key: 0 is no effect; 10 is complete control
Method in brief: as §2

corn (Zea mays) = assay: Test B pre-/postemergence; set-up: key: 0 is no effect; 10 is complete control; settings: for Corn plant response rating: Preemergence
Method in brief: as §2

[12] = system: momingglory (Ipomoea hederacea); assay: Test B pre-/postemergence; set-up: key: 0 is no effect; 10 is complete control
Method in brief: as §2

[13] = system: blackgrass (Alopecurus myosuroides); assay: Test B pre-/postemergence; set-up: key: 0 is no effect; 10 is complete control; settings: for Blackgrass plant response rating: Preemergence
Method in brief: as §2

[14] = system: giant foxtail (Setaria faberii); assay: Test B pre-/postemergence; set-up: key: 0 is no effect; 10 is complete control
Method in brief: as §2

rape (Brassica napus) = assay: Test B pre-/postemergence; set-up: key: 0 is no effect; 10 is complete control
Method in brief: as §2

[15] = system: cocklebur (Xanthium strumarium); assay: Test B pre-/postemergence; set-up: key: 0 is no effect; 10 is complete control; settings: for Cocklebur plant response rating: Preemergence
Method in brief: as §2

[16] = Rate 62 g/ha, Postemergence (flood test)
[17] = Rate 125 g/ha, Postemergence section (flood test species)
[18] = Rate 250 g/ha, Postemergence (flood test species)
[19] = Rate 500 g/ha, Postemergence (flood test species)
[20] = Rate 125 g/ha, Postemergence, flood test
[21] = Rate 250 g/ha, Postemergence (so in the source)

Cc1cnc(-c2ccc(C(F)(F)F)cc2)nc1Cc1cccc(C#N)c1 [Compound 32]
9: Plant response rating, Sugarbeets ([6]; Rate 62 g/ha, Postemergence) | Redroot pigweed plant response rating ([8]; Rate 125 g/ha, Postemergence) | Plant response rating, Redroot pigweed ([8]; Rate 250 g/ha, Postemergence) | Plant response rating, Velvetleaf ([11]; Rate 125 g/ha, Preemergence) | Plant response rating, Velvetleaf ([11]; Rate 250 g/ha, Postemergence) | Plant response rating, Cocklebur ([15]; Rate 250 g/ha, Postemergence)
2: Plant response rating, Rice (rice (Oryza sativa); [18]) | Plant response rating, Rice (rice (Oryza sativa); [19]) | Plant response rating, S. Flatsedge [1, 16] | Plant response rating, Ducksalad [2, 16] | Plant response rating, Barnyardgrass [3, 16] | Wild oats plant response rating (wild oat (Avena fatua); Rate 62 g/ha, Preemergence) | Plant response rating, Crabgrass ([5]; Rate 125 g/ha, Postemergence) | Plant response rating, Crabgrass ([5]; Rate 250 g/ha, Postemergence) | Wheat plant response rating ([7]; Rate 125 g/ha, Postemergence) | Plant response rating, Wheat ([7]; Rate 250 g/ha, Postemergence) | B. signalgrass plant response rating ([10]; Rate 62 g/ha) | Plant response rating, B. signalgrass ([10]; Rate 125 g/ha, Postemergence) | Plant response rating, B. signalgrass ([10]; Rate 250 g/ha, Postemergence) | Morningglory plant response rating ([12]; Rate 125 g/ha, Preemergence) | Plant response rating, Blackgrass ([13]; Rate 125 g/ha, Postemergence) | Blackgrass plant response rating ([13]; Rate 125 g/ha) | Giant foxtail plant response rating ([14]; Rate 125 g/ha, Preemergence) | Plant response rating, Giant foxtail ([14]; Rate 250 g/ha, Postemergence) | Rape plant response rating (rape (Brassica napus); Rate 62 g/ha, Preemergence)
1: Plant response rating, Rice (rice (Oryza sativa); [16]) | Rice plant response rating (rice (Oryza sativa); [17]) | Plant response rating, Nutsedge ([4]; Rate 250 g/ha, Postemergence) | Plant response rating, Soybean (soybean (Glycine max); [21]) | Wild oats plant response rating (wild oat (Avena fatua); Rate 62 g/ha, Postemergence) | Plant response rating, Crabgrass ([5]; Rate 62 g/ha, Postemergence) | Crabgrass plant response rating ([5]; Rate 62 g/ha) | Crabgrass plant response rating ([5]; Rate 125 g/ha) | Wheat plant response rating ([7]; Rate 62 g/ha, Postemergence) | Plant response rating, B. signalgrass ([10]; Rate 62 g/ha, Postemergence) | Plant response rating, Corn (corn (Zea mays); Rate 62 g/ha, Postemergence) | Plant response rating, Corn (corn (Zea mays); Rate 125 g/ha, Postemergence) | Plant response rating, Corn (corn (Zea mays); Rate 250 g/ha, Postemergence) | Morningglory plant response rating ([12]; Rate 62 g/ha, Preemergence) | Plant response rating, Blackgrass ([13]; Rate 62 g/ha, Postemergence) | Blackgrass plant response rating ([13]; Rate 62 g/ha) | Plant response rating, Giant foxtail ([14]; Rate 62 g/ha, Postemergence) | Giant foxtail plant response rating ([14]; Rate 62 g/ha, Preemergence) | Giant foxtail plant response rating ([14]; Rate 125 g/ha, Postemergence)
6: Plant response rating, S. Flatsedge [1, 18] | Plant response rating, Ducksalad [2, 19] | Plant response rating, Soybean (soybean (Glycine max); Rate 250 g/ha, Postemergence) | Plant response rating, Redroot pigweed ([8]; Rate 62 g/ha, Postemergence) | Plant response rating, Bedstraw ([9]; Rate 62 g/ha, Postemergence) | Plant response rating, Bedstraw ([9]; Rate 125 g/ha, Postemergence) | B. signalgrass plant response rating ([10]; Rate 125 g/ha) | Velvetleaf plant response rating ([11]; Rate 62 g/ha, Preemergence)
4: Plant response rating, Ducksalad [2, 18] | Plant response rating, Barnyardgrass [3, 19] | Plant response rating, Soybean (soybean (Glycine max); Rate 62 g/ha, Postemergence) | Plant response rating, Wild oats (wild oat (Avena fatua); [21]) | Plant response rating, Velvetleaf ([11]; Rate 62 g/ha, Postemergence) | Plant response rating, Blackgrass [13, 21]
7: Plant response rating, S. Flatsedge [1, 19] | Plant response rating, B. signalgrass ([10]; Rate 250 g/ha, Postemergence as printed in head r139 (second section for compounds 26-50)) | Plant response rating, Morningglory ([12]; Rate 62 g/ha, Postemergence)
10: Sugarbeets plant response rating ([6]; Rate 125 g/ha, Postemergence) | Plant response rating, Sugarbeets ([6]; Rate 125 g/ha, Preemergence) | Plant response rating, Sugarbeets ([6]; Rate 250 g/ha, Postemergence) | Plant response rating, Sugarbeets [6, 21] | Redroot pigweed plant response rating ([8]; Rate 125 g/ha, Preemergence) | Plant response rating, Redroot pigweed [8, 21] | Plant response rating, Bedstraw ([9]; Rate 250 g/ha, Postemergence) | Plant response rating, Bedstraw [9, 21] | Plant response rating, Velvetleaf [11, 21] | Plant response rating, Morningglory ([12]; Rate 250 g/ha, Postemergence) | Rape plant response rating (rape (Brassica napus); Rate 125 g/ha, Preemergence) | Plant response rating, Rape (rape (Brassica napus); [21])
8: Sugarbeets plant response rating ([6]; Rate 62 g/ha, Preemergence) | Redroot pigweed plant response rating ([8]; Rate 62 g/ha, Preemergence) | Bedstraw plant response rating ([9]; Rate 125 g/ha) | Velvetleaf plant response rating ([11]; Rate 125 g/ha, Postemergence) | Morningglory plant response rating ([12]; Rate 125 g/ha, Postemergence) | Plant response rating, Rape (rape (Brassica napus); Rate 62 g/ha, Postemergence) | Rape plant response rating (rape (Brassica napus); Rate 125 g/ha, Postemergence) | Plant response rating, Rape (rape (Brassica napus); Rate 250 g/ha, Postemergence) | Plant response rating, Cocklebur ([15]; Rate 62 g/ha, Postemergence) | Plant response rating, Cocklebur ([15]; Rate 125 g/ha, Postemergence)
0: Plant response rating, Nutsedge ([4]; Rate 62 g/ha, Postemergence) | Nutsedge plant response rating ([4]; Rate 62 g/ha, Preemergence) | Nutsedge plant response rating ([4]; Rate 125 g/ha, Postemergence) | Nutsedge plant response rating ([4]; Rate 125 g/ha, Preemergence) | Plant response rating, Nutsedge [4, 21] | Soybean plant response rating (soybean (Glycine max); Rate 62 g/ha, Preemergence) | Plant response rating, Soybean (soybean (Glycine max); Rate 125 g/ha, Preemergence) | Wheat plant response rating ([7]; Rate 62 g/ha, Preemergence) | Plant response rating, Wheat ([7]; Rate 125 g/ha, Preemergence) | Plant response rating, Wheat [7, 21] | Corn plant response rating (corn (Zea mays); Rate 62 g/ha) | Corn plant response rating (corn (Zea mays); Rate 125 g/ha) | Plant response rating, Corn (corn (Zea mays); [21]) | Cocklebur plant response rating ([15]; Rate 62 g/ha) | Cocklebur plant response rating ([15]; Rate 125 g/ha) | Plant response rating, Cocklebur [15, 21]
5: S. Flatsedge plant response rating [1, 17] | Soybean plant response rating (soybean (Glycine max); Rate 125 g/ha, Postemergence) | Plant response rating, Blackgrass ([13]; Rate 250 g/ha, Postemergence) | Plant response rating, Giant foxtail [14, 21]
3: Plant response rating, Ducksalad [2, 20] | Plant response rating, Barnyardgrass [3, 20] | Plant response rating, Barnyardgrass [3, 18] | Wild oats plant response rating (wild oat (Avena fatua); Rate 125 g/ha, Postemergence) | Plant response rating, Wild oats (wild oat (Avena fatua); Rate 125 g/ha, Preemergence) | Plant response rating, Wild oats (wild oat (Avena fatua); Rate 250 g/ha, Postemergence) | Plant response rating, Crabgrass [5, 21] | Bedstraw plant response rating ([9]; Rate 62 g/ha) | Plant response rating, Morningglory [12, 21]
